From paper PMC10318527, “Utilization of dietary mixed-linkage β-glucans by the Firmicute Blautia producta” (The Journal of Biological Chemistry, 2023)
Values joined by “and” are separate entries in the source; they are usually repeats but may differ in a detail not shown here. Equal entries are not always repeated. Where two headings read alike, the source gives them in different places.

Columns and labels:
BpGH94MLG [1] = target: T1, BpGH94MLG (Blautia producta, UniProt A0A7G5MNS2); experiment: Phosphorolysis activity of BpGH94MLG on substrates (TLC); assay type: biochemical, Blautia producta ATCC 27340; conditions: inorganic phosphate, 37 °C
T1 sequence (A0A7G5MNS2 1-804): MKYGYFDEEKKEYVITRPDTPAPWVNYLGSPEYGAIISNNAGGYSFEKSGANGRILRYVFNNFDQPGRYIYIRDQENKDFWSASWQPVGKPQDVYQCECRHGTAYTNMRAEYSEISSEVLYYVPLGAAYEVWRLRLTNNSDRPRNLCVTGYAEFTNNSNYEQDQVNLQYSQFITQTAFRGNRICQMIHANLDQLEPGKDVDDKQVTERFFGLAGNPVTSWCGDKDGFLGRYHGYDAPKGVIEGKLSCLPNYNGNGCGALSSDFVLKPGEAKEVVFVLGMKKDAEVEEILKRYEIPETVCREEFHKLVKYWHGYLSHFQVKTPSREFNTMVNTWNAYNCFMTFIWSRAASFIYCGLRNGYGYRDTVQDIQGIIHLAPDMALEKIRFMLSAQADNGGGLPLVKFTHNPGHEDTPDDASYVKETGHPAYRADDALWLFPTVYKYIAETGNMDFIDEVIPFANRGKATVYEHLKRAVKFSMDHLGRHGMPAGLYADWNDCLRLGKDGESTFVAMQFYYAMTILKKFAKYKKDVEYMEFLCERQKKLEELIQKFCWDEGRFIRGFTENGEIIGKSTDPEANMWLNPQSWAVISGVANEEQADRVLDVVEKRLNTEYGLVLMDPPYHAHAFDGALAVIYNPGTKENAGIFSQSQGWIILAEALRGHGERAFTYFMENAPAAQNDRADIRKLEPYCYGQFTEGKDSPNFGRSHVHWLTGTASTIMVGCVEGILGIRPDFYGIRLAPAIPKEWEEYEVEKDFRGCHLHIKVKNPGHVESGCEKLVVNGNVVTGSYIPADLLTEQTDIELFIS
Description: (§1) TLC was used for analyzing enzymatic actions. […] Kinetics parameters for BpGH94MLG were determined with G4G3G, G4G4G3G and cellotriose, following a p-hydroxybenzoic acid hydrazide (PAHBAH) reducing sugar assay ([69]).

BpSBPMLG = BpSBPMLG (Blautia producta, UniProt A0ABX6JB09); experiment: Isothermal titration calorimetry of oligosaccharide binding to BpSBPMLG; design: species or system Blautia producta ATCC 27340
Sequence of BpSBPMLG (A0ABX6JB09 entry or part of it): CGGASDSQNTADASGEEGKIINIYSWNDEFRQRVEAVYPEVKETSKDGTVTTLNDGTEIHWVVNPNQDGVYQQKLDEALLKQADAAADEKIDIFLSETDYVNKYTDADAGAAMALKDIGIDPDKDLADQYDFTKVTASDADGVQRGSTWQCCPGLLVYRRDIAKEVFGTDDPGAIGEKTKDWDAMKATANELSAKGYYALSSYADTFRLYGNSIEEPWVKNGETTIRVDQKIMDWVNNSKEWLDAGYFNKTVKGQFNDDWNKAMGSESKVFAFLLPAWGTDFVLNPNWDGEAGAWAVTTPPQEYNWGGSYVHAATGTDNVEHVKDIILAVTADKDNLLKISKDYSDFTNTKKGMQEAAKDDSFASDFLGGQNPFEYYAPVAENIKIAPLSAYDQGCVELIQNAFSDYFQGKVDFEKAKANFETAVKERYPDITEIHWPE
Description: The binding of β-(1,4), β-(1,3), and MLG-oligosaccharides to BpSBPMLG was measured at 25 °C in 10 mM sodium phosphate buffer (pH 7) using a MicroCal PEAQ-ITC (Malvern). The protein was extensively dialyzed against 10 mM sodium phosphate and all glycan ligands were also dissolved in the same buffer to minimize the heat of dilution. 13 injections of an oligosaccharide were titrated on BpSBPMLG present in the sample cell. Various preliminary titration setups were tried by changing amounts of protein (5–100 μM) and ligand (50 μM–10 mM) to get the best experimental conditions. Thermodynamic binding parameters [calculates binding affinity (Kd), stoichiometry (n), enthalpy (ΔH), Gibbs free energy change (ΔG), and entropy (ΔS)] were determined using the MicroCal PEAQ-ITC analysis software.

BpGH94MLG [2] = target: T1, BpGH94MLG; experiment: Phosphorolysis kinetics of BpGH94MLG (PAHBAH assay); assay type: biochemical, Blautia producta ATCC 27340
Description: as §1

BpGH3-AR8MLG = BpGH3-AR8MLG (Blautia producta, UniProt A0ABX6J8C8); assay type: biochemical, Blautia producta ATCC 27340; conditions: for cleavage by BpGH3-AR8MLG (in words): TLC
Sequence of BpGH3-AR8MLG (A0ABX6J8C8 entry or part of it): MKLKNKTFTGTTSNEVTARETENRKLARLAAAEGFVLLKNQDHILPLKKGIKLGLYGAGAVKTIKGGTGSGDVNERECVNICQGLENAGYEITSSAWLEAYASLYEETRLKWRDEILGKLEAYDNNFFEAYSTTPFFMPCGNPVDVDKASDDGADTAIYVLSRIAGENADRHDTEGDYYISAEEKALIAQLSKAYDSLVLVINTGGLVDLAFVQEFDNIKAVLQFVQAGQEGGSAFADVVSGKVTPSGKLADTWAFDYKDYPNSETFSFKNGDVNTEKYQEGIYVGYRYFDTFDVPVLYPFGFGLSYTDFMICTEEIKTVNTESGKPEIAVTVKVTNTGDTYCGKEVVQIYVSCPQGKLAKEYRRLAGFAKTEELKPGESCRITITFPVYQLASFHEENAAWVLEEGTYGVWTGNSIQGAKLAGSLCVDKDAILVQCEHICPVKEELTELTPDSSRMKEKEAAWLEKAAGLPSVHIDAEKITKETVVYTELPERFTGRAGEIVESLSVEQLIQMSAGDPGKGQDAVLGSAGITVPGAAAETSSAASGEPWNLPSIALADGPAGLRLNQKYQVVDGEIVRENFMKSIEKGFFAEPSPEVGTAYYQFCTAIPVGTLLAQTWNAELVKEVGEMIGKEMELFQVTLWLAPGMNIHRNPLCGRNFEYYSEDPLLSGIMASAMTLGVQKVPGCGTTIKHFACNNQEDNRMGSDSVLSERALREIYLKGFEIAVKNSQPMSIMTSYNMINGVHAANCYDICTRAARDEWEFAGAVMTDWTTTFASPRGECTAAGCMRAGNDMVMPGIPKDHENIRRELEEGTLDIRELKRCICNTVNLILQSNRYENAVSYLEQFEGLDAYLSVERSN
Description: (§2) 150 μl of a freshly prepared 8:2 mixture of reagent A (50 mM sodium sulfite, 0.3 M 4-hydroxybenzhydrazide and 0.6 M HCl) and reagent B (50 mM trisodium citrate, 10 mM CaCl2, 0.5 M NaOH) were added to 50 μl sample. The reaction cocktail was boiled for 10 min at 100 °C. After the reaction was cooled down, the absorbance was recorded at 410 nm using the SpectraMax i3x multi-mode microplate reader. A calibration curve with different concentrations of glucose (0, 2, 4, 8, 16, 40, 80, 100, 200, 300, and 500 μM) was employed for each experiment to calculate the released amount of glucose (reducing end equivalents). The same samples were also used for control measurement, and the control value was subtracted from test reading prior to calculate kinetics parameters. In all cases, the Km, Vmax, and kcat were analyzed on GraphPad Prism. Three independent replicates were used for each test. TLC analyses were used for understanding the enzymatic degradation profiles of various oligosaccharides.

BpGH3-X62MLG = target: T2, BpGH3-X62MLG (Blautia producta, UniProt A0ABX6JIM0); experiment: Hydrolysis kinetics of BpGH3-X62MLG (PAHBAH assay, TLC); conditions: for cleavage by BpGH3-X62MLG (in words): TLC
T2 sequence (A0ABX6JIM0 1-920): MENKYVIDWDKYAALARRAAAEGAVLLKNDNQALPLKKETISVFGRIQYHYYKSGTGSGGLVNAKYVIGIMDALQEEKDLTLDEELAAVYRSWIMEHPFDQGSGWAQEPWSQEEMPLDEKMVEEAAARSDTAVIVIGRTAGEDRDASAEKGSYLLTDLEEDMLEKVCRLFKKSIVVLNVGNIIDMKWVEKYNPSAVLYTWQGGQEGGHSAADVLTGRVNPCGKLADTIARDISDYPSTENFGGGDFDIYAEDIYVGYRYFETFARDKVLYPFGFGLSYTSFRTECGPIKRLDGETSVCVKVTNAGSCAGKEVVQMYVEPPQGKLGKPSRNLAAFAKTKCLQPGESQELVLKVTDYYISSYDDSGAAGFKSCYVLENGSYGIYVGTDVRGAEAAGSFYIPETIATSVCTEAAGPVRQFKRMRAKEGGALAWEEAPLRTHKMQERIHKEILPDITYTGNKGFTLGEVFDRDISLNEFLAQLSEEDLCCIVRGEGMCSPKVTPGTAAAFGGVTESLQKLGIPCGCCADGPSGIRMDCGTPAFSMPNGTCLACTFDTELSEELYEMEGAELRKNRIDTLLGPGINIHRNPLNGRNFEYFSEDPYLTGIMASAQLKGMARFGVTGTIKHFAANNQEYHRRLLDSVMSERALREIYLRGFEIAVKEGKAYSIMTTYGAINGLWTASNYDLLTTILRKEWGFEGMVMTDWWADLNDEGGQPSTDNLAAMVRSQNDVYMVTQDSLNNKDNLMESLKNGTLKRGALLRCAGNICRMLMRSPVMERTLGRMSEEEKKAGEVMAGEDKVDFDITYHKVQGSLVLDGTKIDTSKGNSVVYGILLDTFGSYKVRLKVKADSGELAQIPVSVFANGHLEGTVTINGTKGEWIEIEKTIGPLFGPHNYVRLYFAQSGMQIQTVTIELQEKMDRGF
Description: as §2

BpGH16MLG (BPGH16) = experiment: Michaelis-Menten kinetics of BpGH16MLG on β-glucans (DNS assay); assay type: biochemical, Blautia producta ATCC 27340; conditions: native BPGH16; DNS assay; pH 5.7, 37 °C
Description: Then, reactions were terminated by boiling for 5 min. Enzymatic assays were determined with 3,5- dinitrosalicylic acid (DNS) assay ([85]). In brief, 0.05 g Na2SO3 and 1 g DNS were mixed in a 50 ml water-containing reagent bottle and stirred about 6 h using a magnetic stirrer. After that, 200 μl phenol was added and made up to 100 ml. A working solution of DNS was prepared by adding 50 μl glucose (20% (w/v) stock) in prepared 100 ml of reagent mixtures and immediately used for experiments without adding NaOH. 80 μl DNS reagent was added to the reaction mixtures and incubated at 100 °C for 10 min, followed by ice-cooling for 10 min. Consequently, recorded the developed color spectrophotometrically at 575 nm ([85]). A standard curve generated by different concentrations of maltose was used for determining released reducing sugars in each case.

B. producta ATCC 27340 [3] = experiment: Growth of B. producta on β-glucans; assay type: cell-based, Blautia producta ATCC 27340; conditions: minimal medium containing 1% glucan
Description: Active culture of B. producta and culture conditions were maintained following the recently reported procedure ([31]). Once B. producta grew, cells were centrifuged, and the obtained supernatant was decanted. A pellet of cells was then washed three times with phosphate-buffered saline (PBS) and washed cells were suspended in 2 ml PBS. […] The growth assessment experiments were performed for 96 h, following our recently established protocol ([82]).

BpGH16MLG = experiment: Initial screening of BpGH16MLG against substrates (TLC); assay type: biochemical, Blautia producta ATCC 27340; conditions: pH 5.7, 37 °C, 2 h
Description: After the appropriate incubation time, the reaction was terminated by boiling (5 min), and generated oligosaccharides were analyzed by thin layer chromatography (TLC). Typically, 1 μl of the reaction mixture was used for TLC analysis. TLC analysis was performed on Silica Gel 60 F254 (Merck), and produced sugars were visualized by spraying TLC with 5% H2SO4 in ethanol, followed by heating.

B. producta ATCC 27340 [4] = tested on: B. producta ATCC 27340; design: method as in PMID 33043794; conditions: cited from earlier work
[5] = target: β-mannooligosaccharide binding protein of Roseburia; design: method as in PMID 30796211; conditions: cited from earlier work
TaCDP = tested on: TaCDP; design: method as in PMID 28687766; conditions: phosphorolytic reaction; cited from earlier work
Rt/CtCDP = tested on: Rt/CtCDP; design: method as in PMID 12153715; conditions: phosphorolytic reaction; cited from earlier work
RaCDP = tested on: RaCDP; design: method as in PMID 23802549; conditions: phosphorolytic reaction; cited from earlier work
[6] = ITC at 25 °C, 10 mM sodium phosphate pH 7.0
[7] = PAHBAH assay, 100 mM HEPES pH 6.5, 37 °C

For `OC[C@H]1O[C@@H](O[C@H]2[C@H](O)[C@@H](O)[C@H](O[C@H]3[C@H](O)[C@@H](CO)OC(O)[C@@H]3O)O[C@@H]2CO)[C@H](O)[C@@H](O)[C@@H]1O` (stereo partly drawn) [G4G3G, Glc-β-1-4-Glc-β-1-3-Glc], the “phosphorolysis activity of BpGH94MLG (in words)” value (BpGH94MLG [1]) was “cleaved”, the Kd (BpSBPMLG) was 1.01 µM and the “-TΔS^0” value (BpSBPMLG; [6]) was 4.4 kcal/mol. The “n (binding stoichiometry)” value (BpSBPMLG; [6]) was 0.42 ± 0.01, the “ΔG^0” value (BpSBPMLG; [6]) was -8.18 kcal/mol and the ΔH (BpSBPMLG; [6]) was -12.6 ± 0.32 kcal/mol. The “Km lower compared to cellotriose” value (BpGH94MLG [2]) was “about 1.85 fold”, the “cleavage by BpGH3-AR8MLG (in words)” value (BpGH3-AR8MLG) was “cleaved” and the “cleavage by BpGH3-X62MLG (in words)” value (BpGH3-X62MLG) was “cleaved”.
In the case of Lichenan, the Km (BpGH16MLG (BPGH16)) is reported as 0.13 ± 0.02 mg/mL, the kcat (BpGH16MLG (BPGH16)) is reported as 36 ± 0.5 s⁻¹ and the “growth of B. producta on the glucan” value (B. producta ATCC 27340 [3]) is reported as “able to grow”. The “activity of BpGH16MLG on substrate (initial screening)” value (“activity of BpGH16MLG on substrate” below) (BpGH16MLG) was “did cleave”.
For Laminarin, the Km (BpGH16MLG (BPGH16)) is listed as 0.24 ± 0.03 mg/mL, the kcat (BpGH16MLG (BPGH16)) is listed as 43 ± 0.6 s⁻¹ and the “growth of B. producta on the glucan” value (B. producta ATCC 27340 [4]) is listed as “does not support the growth”. The “activity of BpGH16MLG on substrate” value (BpGH16MLG) was “did cleave”.
For `OC[C@H]1O[C@@H](O[C@H]2[C@H](O)[C@H](O)[C@H](O[C@H]3[C@H](O)[C@H](O)[C@H](O[C@H]4[C@H](O)[C@H](O)C(O)O[C@@H]4CO)O[C@@H]3CO)O[C@@H]2CO)[C@@H](O)[C@@H](O)[C@@H]1O` (stereo partly drawn) [mannotetraose], the Kd [5] is listed as 3.89 µM.
In the case of `OC[C@H]1O[C@@H](O[C@H]2[C@H](O)[C@@H](O)[C@H](O[C@H]3[C@H](O)[C@@H](O)C(O)O[C@@H]3CO)O[C@@H]2CO)[C@H](O)[C@@H](O)[C@@H]1O` (stereo partly drawn) [Cellotriose], the “phosphorolysis activity of BpGH94MLG (in words)” value (BpGH94MLG [1]) is reported as “cleaved”, the Kd (BpSBPMLG) is reported as 1.74 µM and the “-TΔS^0” value (BpSBPMLG; [6]) is reported as 0.8 kcal/mol. The “n (binding stoichiometry)” value (BpSBPMLG; [6]) was 0.77 ± 0.02, the “ΔG^0” value (BpSBPMLG; [6]) was -7.9 kcal/mol and the ΔH (BpSBPMLG; [6]) was -7.1 ± 0.31 kcal/mol. For the same compound, the Km (TaCDP) was 94 µM, the kcat (TaCDP) was 0.28 s⁻¹ and the Km (Rt/CtCDP) was 810 µM. For the same compound, the kcat (Rt/CtCDP) was 4 s⁻¹, the Km (BpGH3-AR8MLG; [7]) was 260 ± 30 µM and the kcat (BpGH3-AR8MLG; [7]) was 15 ± 0.2 s⁻¹. For the same compound, the “activity of BpGH16MLG on substrate” value (BpGH16MLG) was “did not show activity”, the Km (RaCDP) was 6060 µM and the kcat (RaCDP) was 76.2 s⁻¹.
In the case of `OC[C@H]1O[C@@H](O[C@H]2[C@H](O)[C@@H](O)[C@H](O[C@H]3[C@H](O)[C@@H](O)[C@H](O[C@H]4[C@H](O)[C@@H](CO)OC(O)[C@@H]4O)O[C@@H]3CO)O[C@@H]2CO)[C@H](O)[C@@H](O)[C@@H]1O` (stereo partly drawn) [G4G4G3G, Glc-β-1-4-Glc-β-1-4-Glc-β-1-3-Glc], the Kd (BpSBPMLG) is reported as 5.14 µM, the “-TΔS^0” value (BpSBPMLG; [6]) is reported as 5.7 kcal/mol and the Kd (BpSBPMLG; [6]) is reported as 5.14 µM. For the same compound, the “n (binding stoichiometry)” value (BpSBPMLG; [6]) was 0.77 and 0.77 ± 0.02, the “ΔG^0” value (BpSBPMLG; [6]) was -7.22 kcal/mol and the ΔH (BpSBPMLG; [6]) was -12.9 ± 0.85 kcal/mol. For the same compound, the Km fold-change (BpGH94MLG [2]) was roughly 0.75 fold, the “kcat/Km higher compared to G4G3G” value (BpGH94MLG [2]) was 1.6 fold and the “kcat/Km higher compared to cellotriose” value (BpGH94MLG [2]) was 2.4 fold. The “cleavage by BpGH3-AR8MLG (in words)” value (BpGH3-AR8MLG) was “cleaved”, the kcat (BpGH3-X62MLG; [7]) was 18 ± 0.3 s⁻¹ and the “cleavage by BpGH3-X62MLG (in words)” value (BpGH3-X62MLG) was “cleaved”.
